Legend:
Set-up in all cases: species or system human rotavirus
[1] = tested on: VP8* P[8]c binding to LNB; assay: Binding blocking assay, immobilized LNB; settings: soluble sugar at 20 mM
Method: (§1) To confirm the binding of the VP8* from the P[8] genotype to the H type-1 precursor LNB, a blocking assay was performed using soluble LNB and its related disaccharide galacto-N-biose (Gal-β-1,3-GalNAc; GNB) produced and purified in our laboratory as previously described.
(§2) Streptavidin microtiter plates were coated with biotinylated H type-1 antigen or LNB at 2 μg/ml with water and incubated for 1 hour at 37°C, followed by an overnight incubation at 4°C. Blocking assays were performed in parallel, using glass tubes containing the P[8]c and P[8]Wa VP8* protein at their EC50 for each ligand and 20 mM of each of the soluble disaccharides (LNB and GNB) and monosaccharides (D-galactose, GlcNAc and GalNAc). A positive binding control without sugar was also included. The tubes containing the mixes of VP8* with sugars were maintained 1 hour at 37°C, followed by an overnight incubation at 4°C. The next day the coated streptavidin plates were washed with PBS-T, the VP8*-sugar solutions were added to the plates and incubated during 4 hours at 4°C. The plates were washed three times with PBS-T and detection of the interactions was performed as described above. The results are presented as the percentage (%) of binding of each condition compared to the binding of the positive binding control (without blocking sugar). All experiments were performed in triplicate.

[2] = tested on: Wa DLP (double-layered particles); assay: ELISA-like glycan binding assay of rotavirus particles; settings: DLP 10 to 0.078 μg/ml
Text: (§3) African green monkey kidney epithelial cells (MA104 cell line; ATTC #CRL-2378.1) were used for the propagation of rotavirus Wa strain that belongs to the globally dominant human genotype G1P[8]. Briefly, ten MA104 cells confluent 150-cm^2 flasks (approximately 1.5 ×10^7 cells/flask) were infected with Wa strain at a multiplicity of infection (MOI) of ≤ 0.1 and processed as previously described. One hundred ml of medium with 1.5x10^8 virus/ml were obtained and the viral particles were concentrated by pelleting at 160,000 × g for 1 h at 4°C in a SW 41 rotor (Beckman). The viral pellet was resuspended in TNC buffer (20 mM Tris-HCl pH 8.0, 100 mM NaCl, 1 mM CaCl2) for triple-layered particles (TLP) or in TNE (20 mM Tris-HCl, pH 8.0, 100 mM NaCl, 1 mM EDTA) for double-layered particles (DLP).
(§4) An ELISA-like binding assay was employed to determine the binding ability of rotavirus TLP and DLP to the H type-1 antigen and to its precursor LNB. Streptavidin plates were coated with the biotinylated oligosaccharides as described above. After washing with PBS-T, two fold serial dilutions of TLPs and DLP were added to the plate (ranging from 10 μg/ml to 0.078 μg/ml). The TLP were always maintained in TNC-T (20 mM Tris, 100 mM NaCl, 1 mM CaCl2, 0.05% Tween 20, pH 7,4) buffer and the binding and washing steps were always carried out in this solution. DLPs assays were carried out in Tris-buffered saline buffer with Tween 20 (TBS-T, 20 mM Tris, 100 mM NaCl, 0.05% Tween 20, pH 7.4). TLP and DLP were incubated in the plate overnight at 4°C. After binding, the plates were washed three times in TNC-T (for TLP) or TBS-T (for DLP) with 0.05% Tween 20 (TNC-T and TBS-T), and a mouse anti-VP6 antibody was added at 1:100 in TNC-T or TBS-T and incubated 1 h at 37°C. The plates were then washed three times with TNC-T or TBS-T, and a HRP-conjugated anti-mouse IgG was added at 1:10.000 and incubated at 37°C for 1 h. […] Fluorescence units were recorded by a MultiScan microplate reader.

[3] = tested on: Wa TLP (triple-layered particles); assay: as above; settings: TLP 10 to 0.078 μg/ml
Text: as §3, §4

[4] = tested on: P[8]c VP8* mutant W174A (M1); assay: SPR binding of VP8* mutant
Text: (§5) Selected residues in the GST::VP8* P[8] were replaced for alanine or valine according to the structural data of the LNB binding site. Four mutants (M1–M4) were constructed using a Quick-Change site-directed mutagenesis kit (Stratagene) and appropriate oligonucleotides (S5 Table), and the DNA changes were confirmed by DNA sequencing. Mutant M1, M2 and M3 contained changes in the codons for tryptophan 174, arginine 209 and glutamic 212 residues, respectively, that introduced an alanine at each position. Mutant M4 substituted isoleucine 173 by valine.
(§6) The affinity assays were based on SPR and performed in a Biacore T100 instrument (GE Healthcare). H1 PAA-biotin and LNB PAA-biotin were diluted to a concentration of 1 mg/ml in water and captured with streptavidin present in a SA sensor chip (GE Healthcare). H1 was immobilized in channel 2 (630 RU) of the sensor chip and LNB was immobilized in channel 4 (624 RU). The channels 1 and 3 were used as the reference surfaces for channels 2 and 4, respectively. The immobilization process was performed by conditioning the sensor chip surface with three consecutive 1-minute injections of 1 M NaCl 50 mM NaOH before biotinylated ligands were immobilized at a flow rate of 15 μl/min. The affinity assays of VP8* polypeptides to biotinylated sugars were performed at 10°C using 1X HBS-EP^+ buffer (0.01 M HEPES pH 7.4, 0.15 M NaCl, 3 mM EDTA, 0.005% Surfactant P20), a flow rate of 5 μl/min with 2700 seconds of contact time and a dissociation time of 1800 seconds. The regeneration step consisted in a wash step with 10 mM Glycine-HCl pH 2 for 20 seconds at the same flow rate. The assays were performed with purified VP8* at different concentrations (45; 137; 411; 1,234; 3,703; 11,111; 33,333; 100,000 and 200,000 nM). Each run included three blanks without sample. The affinity data were obtained after analysis of sensorgrams performed with the BIAevaluation 2.0 software (GE Healthcare). Since multivalent oligosaccharides are immobilized on a sensor chip surface, avidity and rebinding effects can take place and apparent affinity constants (Kda) are calculated with this experimental setup. Kda values were obtained from the steady-state kinetics experiment as the ligand concentration needed to achieve a half-maximum binding at equilibrium. The experiments were made in triplicate. Graphical representation of signal/concentration curves were plotted using GraphPad Prism 6 for MacOsX.

[5] = tested on: P[8]c VP8* mutant R209A (M2); assay: SPR binding of VP8* mutant
Text: as §5, §6

[6] = tested on: P[8]c VP8* mutant E212A (M3); assay: SPR binding of VP8* mutant
Text: as §5, §6

[7] = tested on: VP8* P[8]c binding to the H1 antigen; assay: Binding blocking assay, immobilized H1 antigen; settings: soluble sugar at 20 mM
Method: as §1, §2

SMILES	reduction of the binding of VP8* P[8]c to LNB [1] [%]	binding of rotavirus particles (ELISA-like) [2]	binding of rotavirus particles (ELISA-like) [3]	binding by SPR [4]	binding by SPR [5]	binding by SPR [6]	reduction in the binding to the H1 antigen [7] [%]
CC(=O)NC1C(O)OC(CO)C(O)C1OC1OC(CO)C(O)C(O)C1O (stereo not drawn) [LNB, Gal-β1,3-GlcNAc]	52.2	not	able to bind	lost their ability to interact	lost their ability to interact	lost their ability to interact	24.2
CC(=O)NC1C(O)OC(CO)C(O)C1OC1OC(CO)C(O)C(O)C1OC1OC(C)C(O)C(O)C1O (stereo not drawn) [H1, Fuc-α1,2-Gal-β1,3-GlcNAc]	–	not	able to bind	lost their ability to interact	lost their ability to interact	lost their ability to interact	–

Source: PMC6609034, “Unraveling the role of the secretor antigen in human rotavirus attachment to histo-blood group antigens” (PLoS Pathogens, 2019)
